{
  "source": "ChEMBL document CHEMBL5506023",
  "about": "“Design, Synthesis, and Evaluation of Dihydropyrimidine Derivatives as Selective PDE1 Inhibitors for the Treatment of Liver Fibrosis” (J Med Chem, 2024)",
  "key": {"Rattus norvegicus [1]": {"tested_on": "Rattus norvegicus", "assay": "Antifibrotic activity against bile duct ligation induced Sprague-Dawley rat liver fibrosis model assessed as reduction in alpha-smooth muscle actin level in liver at 2.5 mg/kg,ip administrated once daily for 21 days by immunofluorescence staining based analysis", "assay_type": "functional, organism-based", "details": "time 21.0 day"}, "[2]": {"assay": "Selectivity index, ratio of IC50 for inhibition of PDE1C2 (147 to 531 residues) (unknown origin) using 3H-cGMP as substrate to IC50 for inhibition of PDE2A (580 to 919 residues) (unknown origin) using 3H-cGMP as substrate"}, "[3]": {"assay": "Selectivity index, ratio of IC50 for inhibition of PDE1C2 (147 to 531 residues) (unknown origin) using 3H-cGMP as substrate to IC50 for inhibition of PDE3A (679 to 1087 residues) (unknown origin) using 3H-cAMP as substrate"}, "Cytochrome P450 2C19": {"molecular_target": "Cytochrome P450 2C19 (Homo sapiens, UniProt P33261)", "sequence (P33261 whole entry)": "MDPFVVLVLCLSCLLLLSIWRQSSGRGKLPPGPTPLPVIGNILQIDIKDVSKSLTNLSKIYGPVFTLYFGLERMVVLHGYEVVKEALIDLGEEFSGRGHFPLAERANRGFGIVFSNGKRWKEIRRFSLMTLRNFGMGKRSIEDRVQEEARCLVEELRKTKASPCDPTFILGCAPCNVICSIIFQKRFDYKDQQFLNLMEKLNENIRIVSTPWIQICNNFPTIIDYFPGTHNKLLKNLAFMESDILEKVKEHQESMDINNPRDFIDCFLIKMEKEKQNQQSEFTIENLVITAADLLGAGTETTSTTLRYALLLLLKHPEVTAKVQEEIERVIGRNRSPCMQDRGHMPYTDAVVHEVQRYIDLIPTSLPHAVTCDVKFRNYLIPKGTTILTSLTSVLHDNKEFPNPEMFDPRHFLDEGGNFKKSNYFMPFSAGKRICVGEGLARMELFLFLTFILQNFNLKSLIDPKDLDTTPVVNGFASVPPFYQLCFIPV", "assay": "Inhibition of CYP2C19 in human liver microsomes in presence of NADPH", "assay_type": "ADME, Microsome"}, "LX-2 [4]": {"tested_on": "LX-2", "assay": "Antifibrotic activity against TGF-beta induced human LX-2 cell activation assessed as downregulation of collagen-I expression incubated for 48 hrs by Western blotting analysis", "assay_type": "functional, cell-based"}, "[5]": {"assay": "Selectivity index, ratio of IC50 for inhibition of PDE1C2 (147 to 531 residues) (unknown origin) using 3H-cGMP as substrate to IC50 for inhibition of PDE10A (449 to 770 residues) (unknown origin) using 3H-cAMP as substrate"}, "[6]": {"molecular_target": "Dual specificity calcium/calmodulin-dependent 3',5'-cyclic nucleotide phosphodiesterase 1C (Homo sapiens, UniProt Q14123)", "sequence (Q14123 whole entry, the tested form may be a part)": "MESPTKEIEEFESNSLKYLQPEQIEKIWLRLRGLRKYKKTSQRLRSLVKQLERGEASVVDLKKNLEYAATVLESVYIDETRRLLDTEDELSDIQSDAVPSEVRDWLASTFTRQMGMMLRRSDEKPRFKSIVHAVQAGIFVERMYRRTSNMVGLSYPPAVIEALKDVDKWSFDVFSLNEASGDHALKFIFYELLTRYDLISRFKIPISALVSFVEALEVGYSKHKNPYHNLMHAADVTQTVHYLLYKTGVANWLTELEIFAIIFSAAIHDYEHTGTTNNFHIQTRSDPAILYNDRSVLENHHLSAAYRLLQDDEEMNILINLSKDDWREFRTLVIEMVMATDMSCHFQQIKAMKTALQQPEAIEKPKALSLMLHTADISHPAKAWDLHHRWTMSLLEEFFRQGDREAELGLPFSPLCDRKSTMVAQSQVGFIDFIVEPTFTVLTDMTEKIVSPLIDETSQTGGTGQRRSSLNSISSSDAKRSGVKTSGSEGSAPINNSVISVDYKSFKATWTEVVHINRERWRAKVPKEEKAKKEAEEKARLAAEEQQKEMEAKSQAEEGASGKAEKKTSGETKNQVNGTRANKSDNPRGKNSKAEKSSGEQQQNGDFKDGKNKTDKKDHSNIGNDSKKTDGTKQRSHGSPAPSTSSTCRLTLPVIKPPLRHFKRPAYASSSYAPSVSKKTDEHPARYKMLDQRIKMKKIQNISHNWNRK", "assay": "Inhibition of PDE1C2 (147 to 531 residues) (unknown origin) using 3H-cGMP as substrate incubated for 15 mins by liquid scintillation counter analysis"}, "[7]": {"molecular_target": "cGMP-dependent 3',5'-cyclic phosphodiesterase (Homo sapiens, UniProt O00408)", "sequence (O00408 whole entry, the tested form may be a part)": "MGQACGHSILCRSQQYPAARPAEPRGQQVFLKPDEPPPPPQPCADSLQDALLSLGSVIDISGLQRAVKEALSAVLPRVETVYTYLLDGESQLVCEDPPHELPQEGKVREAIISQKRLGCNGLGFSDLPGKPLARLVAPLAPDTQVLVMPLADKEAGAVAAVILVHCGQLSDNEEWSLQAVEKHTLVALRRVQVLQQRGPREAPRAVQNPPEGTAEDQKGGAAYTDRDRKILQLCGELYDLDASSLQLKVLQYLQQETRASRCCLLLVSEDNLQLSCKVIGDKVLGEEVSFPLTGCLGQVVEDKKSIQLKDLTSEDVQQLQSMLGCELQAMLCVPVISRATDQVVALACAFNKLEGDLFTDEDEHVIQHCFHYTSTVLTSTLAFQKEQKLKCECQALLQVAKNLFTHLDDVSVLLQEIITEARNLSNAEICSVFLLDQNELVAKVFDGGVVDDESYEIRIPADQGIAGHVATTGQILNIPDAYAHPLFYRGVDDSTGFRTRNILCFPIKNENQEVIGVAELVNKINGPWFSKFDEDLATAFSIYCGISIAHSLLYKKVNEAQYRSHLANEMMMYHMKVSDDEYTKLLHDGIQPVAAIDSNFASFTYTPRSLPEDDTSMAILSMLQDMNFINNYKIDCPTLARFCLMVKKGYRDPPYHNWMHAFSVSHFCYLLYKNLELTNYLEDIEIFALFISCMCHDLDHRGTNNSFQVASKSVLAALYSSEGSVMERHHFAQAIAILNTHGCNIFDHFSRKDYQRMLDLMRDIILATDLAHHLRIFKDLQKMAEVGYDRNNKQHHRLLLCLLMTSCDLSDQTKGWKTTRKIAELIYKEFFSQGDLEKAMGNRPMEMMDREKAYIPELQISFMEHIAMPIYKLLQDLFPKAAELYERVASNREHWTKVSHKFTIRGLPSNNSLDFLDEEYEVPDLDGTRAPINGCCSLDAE", "assay": "Inhibition of PDE2A (580 to 919 residues) (unknown origin) using 3H-cGMP as substrate"}, "[8]": {"assay": "Observed clearance in Sprague-Dawley rat at 2.5 mg/kg,iv administration", "assay_type": "ADME, organism-based", "details": "in vivo"}, "[9]": {"assay": "Acute toxicity in Kunming mouse assessed as lethal dose at po administration for 14 days", "assay_type": "organism-based", "details": "in vivo, 336 h, time 14 day"}, "LX-2 [10]": {"tested_on": "LX-2", "assay": "Antifibrotic activity against TGF-beta induced human LX-2 cell activation assessed as reduction in cell proliferation at 2.5 to 10 uM incubated for 48 hrs by Edu staining based analysis", "assay_type": "functional", "details": "dose 2.5-10 µM"}, "[11]": {"molecular_target": "High affinity 3',5'-cyclic-AMP phosphodiesterase 7A (Homo sapiens, UniProt Q13946)", "assay": "Inhibition of PDE7A (130 to 482 residues) (unknown origin) using 3H-cAMP as substrate at 5000 nM relative to control"}, "[12]": {"molecular_target": "cAMP and cAMP-inhibited cGMP 3',5'-cyclic phosphodiesterase 10A (Homo sapiens, UniProt Q9Y233)", "sequence (Q9Y233 whole entry, the tested form may be a part)": "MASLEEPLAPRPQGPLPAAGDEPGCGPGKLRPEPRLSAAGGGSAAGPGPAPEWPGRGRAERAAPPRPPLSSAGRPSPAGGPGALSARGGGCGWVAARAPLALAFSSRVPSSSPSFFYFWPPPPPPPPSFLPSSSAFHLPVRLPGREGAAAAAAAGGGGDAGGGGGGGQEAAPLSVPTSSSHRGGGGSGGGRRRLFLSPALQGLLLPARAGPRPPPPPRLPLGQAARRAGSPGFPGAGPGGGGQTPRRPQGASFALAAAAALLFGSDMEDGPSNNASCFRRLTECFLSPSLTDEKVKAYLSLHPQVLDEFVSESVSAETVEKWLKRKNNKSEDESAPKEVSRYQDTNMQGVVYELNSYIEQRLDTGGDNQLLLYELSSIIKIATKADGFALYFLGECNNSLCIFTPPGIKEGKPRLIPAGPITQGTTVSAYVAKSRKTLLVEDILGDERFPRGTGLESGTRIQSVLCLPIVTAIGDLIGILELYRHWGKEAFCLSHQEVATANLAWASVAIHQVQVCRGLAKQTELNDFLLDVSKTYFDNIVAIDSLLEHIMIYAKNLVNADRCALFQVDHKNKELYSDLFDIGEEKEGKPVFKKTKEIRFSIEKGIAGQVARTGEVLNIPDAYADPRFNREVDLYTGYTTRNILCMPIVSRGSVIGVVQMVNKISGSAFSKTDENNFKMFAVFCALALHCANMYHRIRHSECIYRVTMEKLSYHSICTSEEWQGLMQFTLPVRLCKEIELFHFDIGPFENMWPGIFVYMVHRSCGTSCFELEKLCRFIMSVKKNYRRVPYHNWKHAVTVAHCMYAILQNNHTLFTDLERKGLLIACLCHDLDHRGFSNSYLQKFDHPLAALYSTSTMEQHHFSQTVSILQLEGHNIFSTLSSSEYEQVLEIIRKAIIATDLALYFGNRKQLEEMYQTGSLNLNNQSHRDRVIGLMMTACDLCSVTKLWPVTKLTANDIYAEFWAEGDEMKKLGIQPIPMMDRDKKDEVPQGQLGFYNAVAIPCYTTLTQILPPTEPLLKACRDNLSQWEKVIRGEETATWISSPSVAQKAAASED", "assay": "Inhibition of PDE10A (449 to 770 residues) (unknown origin) using 3H-cAMP as substrate"}, "[13]": {"assay": "Half life in Sprague-Dawley rat at 2.5 mg/kg,iv administration", "assay_type": "ADME, organism-based", "details": "in vivo"}, "[14]": {"assay": "Observed volume of distribution at steady state in Sprague-Dawley rat at 2.5 mg/kg,iv administration", "assay_type": "ADME, organism-based", "details": "in vivo, read-out: Vdss"}, "Rattus norvegicus [15]": {"tested_on": "Rattus norvegicus", "assay": "Antifibrotic activity against bile duct ligation induced Sprague-Dawley rat liver fibrosis model assessed as reduction in ALT level at 2.5 mg/kg,ip administrated once daily for 21 days", "assay_type": "functional, organism-based", "details": "time 21.0 day"}, "[16]": {"molecular_target": "High affinity cGMP-specific 3',5'-cyclic phosphodiesterase 9A (Homo sapiens, UniProt O76083)", "assay": "Inhibition of PDE9A (181 to 506 residues) (unknown origin) using 3H-cGMP as substrate"}, "Rattus norvegicus [17]": {"tested_on": "Rattus norvegicus", "assay": "Antifibrotic activity against bile duct ligation induced Sprague-Dawley rat liver fibrosis model assessed as downregulation of collagen I expression in liver at 2.5 mg/kg,ip administrated once daily for 21 days by Western blotting analysis", "assay_type": "functional, organism-based", "details": "time 21.0 day"}, "Rattus norvegicus [18]": {"tested_on": "Rattus norvegicus", "assay": "Antifibrotic activity against bile duct ligation induced Sprague-Dawley rat liver fibrosis model assessed as reduction in fibrotic lesion at 2.5 mg/kg,ip administrated once daily for 21 days by hematoxylin and eosin staining based analysis", "assay_type": "functional, organism-based", "details": "time 21.0 day"}, "[19]": {"assay": "Selectivity index, ratio of IC50 for inhibition of PDE1C2 (147 to 531 residues) (unknown origin) using 3H-cGMP as substrate to IC50 for inhibition of PDE8A (480 to 820 residues) (unknown origin) using 3H-cAMP as substrate"}, "Rattus norvegicus [20]": {"tested_on": "Rattus norvegicus", "assay": "Antifibrotic activity against bile duct ligation induced Sprague-Dawley rat liver fibrosis model assessed as reduction in liver damage at 2.5 mg/kg,ip administrated once daily for 21 days by hematoxylin and eosin staining based analysis", "assay_type": "functional, organism-based", "details": "time 21.0 day"}, "Cytochrome P450 2C9": {"molecular_target": "Cytochrome P450 2C9 (Homo sapiens, UniProt P11712)", "sequence (P11712 whole entry)": "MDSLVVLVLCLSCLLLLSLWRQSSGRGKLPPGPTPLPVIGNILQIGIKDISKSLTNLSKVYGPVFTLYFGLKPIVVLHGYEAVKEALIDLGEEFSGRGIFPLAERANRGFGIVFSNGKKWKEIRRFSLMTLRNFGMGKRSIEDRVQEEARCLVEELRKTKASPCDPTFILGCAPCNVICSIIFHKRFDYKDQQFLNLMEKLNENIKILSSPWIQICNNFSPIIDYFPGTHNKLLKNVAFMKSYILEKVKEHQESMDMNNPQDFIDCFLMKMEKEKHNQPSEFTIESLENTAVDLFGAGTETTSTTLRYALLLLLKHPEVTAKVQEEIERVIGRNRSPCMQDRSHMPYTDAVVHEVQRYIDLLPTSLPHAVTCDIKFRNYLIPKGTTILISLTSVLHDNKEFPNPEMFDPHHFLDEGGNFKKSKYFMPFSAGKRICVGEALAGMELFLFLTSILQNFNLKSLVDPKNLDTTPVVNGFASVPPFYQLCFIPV", "assay": "Inhibition of CYP2C9 in human liver microsomes in presence of NADPH", "assay_type": "ADME, Microsome"}, "[21]": {"assay": "Selectivity index, ratio of IC50 for inhibition of PDE1C2 (147 to 531 residues) (unknown origin) using 3H-cGMP as substrate to IC50 for inhibition of PDE5A (535 to 860 residues) (unknown origin) using 3H-cGMP as substrate"}, "[22]": {"assay": "AUC (0 to infinity) in Sprague-Dawley rat at 2.5 mg/kg,iv administration", "assay_type": "ADME, organism-based", "details": "in vivo"}, "[23]": {"assay": "MRT in Sprague-Dawley rat at 2.5 mg/kg,iv administration", "assay_type": "ADME, organism-based", "details": "in vivo"}, "[24]": {"assay": "Selectivity index, ratio of IC50 for inhibition of PDE1C2 (147 to 531 residues) (unknown origin) using 3H-cGMP as substrate to IC50 for inhibition of PDE7A (130 to 482 residues) (unknown origin) using 3H-cAMP as substrate"}, "[25]": {"molecular_target": "T1, cGMP-inhibited 3',5'-cyclic phosphodiesterase 3A (Homo sapiens, UniProt Q14432)", "T1 sequence (Q14432 whole entry, the tested form may be a part)": "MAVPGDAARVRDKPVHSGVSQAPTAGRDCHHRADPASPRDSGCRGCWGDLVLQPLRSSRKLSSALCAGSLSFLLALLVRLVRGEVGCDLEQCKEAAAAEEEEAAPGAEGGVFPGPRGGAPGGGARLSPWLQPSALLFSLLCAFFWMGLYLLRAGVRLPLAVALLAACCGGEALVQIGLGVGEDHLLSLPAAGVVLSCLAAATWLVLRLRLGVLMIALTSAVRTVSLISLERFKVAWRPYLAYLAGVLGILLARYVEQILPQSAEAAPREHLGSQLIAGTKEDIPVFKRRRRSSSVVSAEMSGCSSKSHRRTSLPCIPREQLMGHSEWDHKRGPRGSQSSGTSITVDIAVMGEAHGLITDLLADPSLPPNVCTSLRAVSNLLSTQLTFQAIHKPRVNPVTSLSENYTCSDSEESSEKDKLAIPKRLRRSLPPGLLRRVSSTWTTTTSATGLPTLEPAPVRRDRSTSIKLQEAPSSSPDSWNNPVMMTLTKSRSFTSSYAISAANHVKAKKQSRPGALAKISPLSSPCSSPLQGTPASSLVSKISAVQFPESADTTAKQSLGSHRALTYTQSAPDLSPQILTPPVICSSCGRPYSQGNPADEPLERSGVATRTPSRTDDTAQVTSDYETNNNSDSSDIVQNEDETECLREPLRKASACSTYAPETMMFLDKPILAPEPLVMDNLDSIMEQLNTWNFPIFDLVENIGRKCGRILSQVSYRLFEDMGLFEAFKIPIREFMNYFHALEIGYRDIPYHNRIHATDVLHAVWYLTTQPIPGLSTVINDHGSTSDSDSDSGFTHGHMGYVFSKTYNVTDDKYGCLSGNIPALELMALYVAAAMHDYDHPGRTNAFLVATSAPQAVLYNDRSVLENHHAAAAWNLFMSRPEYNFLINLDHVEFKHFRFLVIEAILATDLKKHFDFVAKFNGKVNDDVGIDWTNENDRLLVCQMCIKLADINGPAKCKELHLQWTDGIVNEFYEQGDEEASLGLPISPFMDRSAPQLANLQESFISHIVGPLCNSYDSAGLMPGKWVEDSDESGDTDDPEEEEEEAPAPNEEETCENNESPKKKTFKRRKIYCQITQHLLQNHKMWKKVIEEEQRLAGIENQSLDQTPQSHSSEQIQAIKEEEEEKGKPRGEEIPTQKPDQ", "assay": "Inhibition of PDE3A (679 to 1087 residues) (unknown origin) using 3H-cAMP as substrate at 5000 nM relative to control"}, "Rattus norvegicus [26]": {"tested_on": "Rattus norvegicus", "assay": "Antifibrotic activity against bile duct ligation induced Sprague-Dawley rat liver fibrosis model assessed as increase in cAMP level in liver at 2.5 mg/kg,ip administrated once daily for 21 days by ELISA", "assay_type": "functional, organism-based", "details": "time 21.0 day"}, "Rattus norvegicus [27]": {"tested_on": "Rattus norvegicus", "assay": "Antifibrotic activity against bile duct ligation induced Sprague-Dawley rat liver fibrosis model assessed as reduction in collagen deposition at 2.5 mg/kg,ip administrated once daily for 21 days by Masson's trichome staining based analysis", "assay_type": "functional, organism-based", "details": "time 21.0 day"}, "[28]": {"molecular_target": "cGMP-specific 3',5'-cyclic phosphodiesterase (Homo sapiens, UniProt O76074)", "assay": "Inhibition of PDE5A (535 to 860 residues) (unknown origin) using 3H-cGMP as substrate"}, "Rattus norvegicus [29]": {"tested_on": "Rattus norvegicus", "assay": "Antifibrotic activity against bile duct ligation induced Sprague-Dawley rat liver fibrosis model assessed as downregulation of alpha-SMA expression in liver at 2.5 mg/kg,ip administrated once daily for 21 days by Western blotting analysis", "assay_type": "functional, organism-based", "details": "time 21.0 day"}, "[30]": {"molecular_target": "T1, cGMP-inhibited 3',5'-cyclic phosphodiesterase 3A", "assay": "Inhibition of PDE3A (679 to 1087 residues) (unknown origin) using 3H-cAMP as substrate"}, "LX-2 [31]": {"tested_on": "LX-2", "assay": "Antifibrotic activity against TGF-beta induced human LX-2 cell activation assessed as downregulation of alpha-SMA expression incubated for 48 hrs by Western blotting analysis", "assay_type": "functional, cell-based"}},
  "note": "Calls of active or inactive are those of the source. No cut-off for these calls is given here.",
  "data": [
    {"smiles": "CC1=C(C(=O)OCC2CCCCC2)C(c2ccc(OC(F)F)c(OCC3CC3)c2)N(C(=O)SCc2ccccc2)C(=O)N1", "note": "(stereo not drawn)", "values": [
      {"measurement": "Activity", "setting": "Rattus norvegicus [1]", "result": "Active"},
      {"measurement": "Ratio IC50", "setting": "[2]", "result": 354},
      {"measurement": "Ratio IC50", "setting": "[3]", "result": "> 500"},
      {"measurement": "IC50", "setting": "Cytochrome P450 2C19", "result": "> 25", "unit": "µM"},
      {"measurement": "Activity", "setting": "LX-2 [4]", "result": "Dose-Dependent Effect"},
      {"measurement": "Ratio IC50", "setting": "[5]", "result": 60},
      {"measurement": "IC50", "setting": "[6]", "result": 0.01, "unit": "µM"},
      {"measurement": "IC50", "setting": "[7]", "result": 3.54, "unit": "µM"},
      {"measurement": "clearance", "setting": "[8]", "result": 6.56, "unit": "mL/min/kg"},
      {"measurement": "LD", "setting": "[9]", "result": "> 1500", "unit": "mg/kg"},
      {"measurement": "Activity", "setting": "LX-2 [10]", "result": "Active"},
      {"measurement": "inhibition", "setting": "[11]", "result": "< 50", "unit": "%"},
      {"measurement": "IC50", "setting": "[12]", "result": 0.597, "unit": "µM"},
      {"measurement": "half-life", "setting": "[13]", "result": 7.51, "unit": "h"},
      {"measurement": "Vd", "setting": "[14]", "result": 0.698, "unit": "L/kg"},
      {"measurement": "Activity", "setting": "Rattus norvegicus [15]", "result": "Active"},
      {"measurement": "IC50", "setting": "[16]", "result": 2.1, "unit": "µM"},
      {"measurement": "Activity", "setting": "Rattus norvegicus [17]", "result": "Active"},
      {"measurement": "Activity", "setting": "Rattus norvegicus [18]", "result": "Active"},
      {"measurement": "Ratio IC50", "setting": "[19]", "result": 176},
      {"measurement": "Activity", "setting": "Rattus norvegicus [20]", "result": "Active"},
      {"measurement": "IC50", "setting": "Cytochrome P450 2C9", "result": "> 25", "unit": "µM"},
      {"measurement": "Ratio IC50", "setting": "[21]", "result": 168},
      {"measurement": "AUC(0-inf)", "setting": "[22]", "result": 6320, "unit": "ng·h/mL"},
      {"measurement": "MRT", "setting": "[23]", "result": 1.77, "unit": "h"},
      {"measurement": "Ratio IC50", "setting": "[24]", "result": "> 500"},
      {"measurement": "inhibition", "setting": "[25]", "result": "< 50", "unit": "%"},
      {"measurement": "Activity", "setting": "Rattus norvegicus [26]", "result": "Active"},
      {"measurement": "Activity", "setting": "Rattus norvegicus [27]", "result": "Active"},
      {"measurement": "IC50", "setting": "[28]", "result": 1.68, "unit": "µM"},
      {"measurement": "Activity", "setting": "Rattus norvegicus [29]", "result": "Active"},
      {"measurement": "IC50", "setting": "[30]", "result": "> 5", "unit": "µM"},
      {"measurement": "Activity", "setting": "LX-2 [31]", "result": "Dose-Dependent Effect"}
    ]}
  ]
}
